Source: patent US20230114728A1 (Venatorx Pharmaceuticals, Inc., priority 2019, published 2023)
In brackets after ≈: the same amount, converted by molar mass. Like-named read-outs stand apart in the source and are kept apart here.

Legend:
Assay in all cases: Broth microdilution MIC in CAMHB
Type in all cases: cell-based
E. coli AG100 = details: Escherichia coli, MHB, read-out: Minimum Inhibitory Concentration, E. coli AG100
Experimental: (§1) Example III: In Vitro Antibacterial Assays
(§2) To determine the ability of test compounds to inhibit the growth of bacterial strains, classic cell based broth microdilution minimum inhibitory concentration (MIC) assays were employed. MIC assays are performed according to CLSI methods except where otherwise noted (CLSI, 2018 and CLSI, 2019). The reference type strain E. coli ATCC 25922; the wild-type parent strain E. coli AG100; the hyper-permeable E. coli 901C and E. coli D22; and the E. coli AG100A strain lacking the acrAB efflux pump encoding genes were used to determine the ability of the PBP inhibitors to penetrate the outer membrane of gram-negative bacteria and inhibit bacterial growth. […] The P. aeruginosa ATCC 27853 and A. baumannii ATCC 19606, along with the hyper-permeable P. aeruginosa ATCC 35151 and an engineered efflux pump-compromised strain of P. aeruginosa (ΔmexAB-oprM) were used to determine the ability of PBP inhibitors to penetrate the outer membrane of P. aeruginosa and A. baumannii and assess antibacterial activity against these important gram-negative organisms.
(§3) Briefly, cryo-preserved bacterial cultures of challenge strains are streaked for isolation on appropriate agar medium, in this case cation-adjusted Mueller Hinton agar. Following incubation to allow growth of the colonies, plates are sealed with parafilm and stored refrigerated for up to two weeks. For preparation of assay inoculum and to ensure low variability, at least 5 colonies are picked from the agar plates with an inoculating loop and aseptically transferred to a culture tube containing 3 mL of cation-adjusted Mueller Hinton broth (CAMHB). The broth culture is grown for 3-5 hours at 37° C. with shaking at 200 rpm. Meanwhile, 2-fold serial dilutions of test compounds are conducted in a 96-well plate with a final volume of 75 μL per well at 2-fold the final desired concentration. After the dilution plates are set up the growing cultures are then diluted in a cuvette containing CAMHB and the optical density is measured at 600 nm. The inoculum is diluted such that 75 μL of this culture in CAMHB results in a starting bacterial concentration of 2-8×10^5 CFU/mL when added to the dilution plates. The plates are incubated for 16-20 hours for Enterobacteriaceae and Pseudomonas and 20-24 hours for Acinetobacter at 37° C. The MIC values are read visually as the lowest concentration well with no bacterial growth.

[1] = test system: K. pneumoniae SI-117 producing VIM-1; details: Klebsiella pneumoniae, read-out: Minimum Inhibitory Concentration, K. pneumoniae SI-117
Experimental: as §1, §2, §3

E. coli D22 = details: Escherichia coli, MHB, read-out: Minimum Inhibitory Concentration, E. coli D22
Experimental: as §1, §2, §3

A. baumannii ATCC 19606 = details: Acinetobacter baumannii, ATCC19606; MHB; read-out: Minimum Inhibitory Concentration, A. baumannii ATCC 19606
Experimental: as §1, §2, §3

P. aeruginosa ATCC 35151 = details: Pseudomonas aeruginosa, ATCC35151; MHB; hyper-permeable strain; read-out: Minimum Inhibitory Concentration, P. aeruginosa ATCC 35151
Experimental: as §1, §2, §3

E. coli 901C = details: Escherichia coli, MHB, read-out: Minimum Inhibitory Concentration, E. coli 901C
Experimental: as §1, §2, §3

[2] = test system: P. aeruginosa (ΔmexAB-oprM); details: Pseudomonas aeruginosa, read-out: Minimum Inhibitory Concentration, P. aeruginosa ΔmexAB-OprM
Experimental: as §1, §2, §3

[3] = test system: K. pneumoniae 848844 producing SHV-11 and KPC-2; details: Klebsiella pneumoniae, read-out: Minimum Inhibitory Concentration, K. pneumoniae 848844
Experimental: as §1, §2, §3

E. coli AG100A = details: Escherichia coli, read-out: Minimum Inhibitory Concentration, E. coli AG100A
Experimental: as §1, §2, §3

[4] = test system: K. pneumoniae UMM producing SHV-5 and KPC-2; details: Klebsiella pneumoniae, read-out: Minimum Inhibitory Concentration, K. pneumoniae UMM
Experimental: as §1, §2, §3

E. coli ATCC 25922 = test system: E. coli ATCC 25922
Experimental: as §1, §2, §3

P. aeruginosa ATCC 27853 = details: Pseudomonas aeruginosa, ATCC27853; MHB; read-out: Minimum Inhibitory Concentration, P. aeruginosa ATCC 27853
Experimental: as §1, §2, §3

[5] = wild-type parent strain E. coli AG100
[6] = Escherichia coli, ATCC25922; MHB; E. coli ATCC 25922; read-out: Minimum Inhibitory Concentration, E. coli 25922

SMILES	MIC (E. coli AG100; E. coli AG100 (wild-type parent))	MIC [1]	MIC (E. coli D22; E. coli D22 (hyper-permeable))	MIC (A. baumannii ATCC 19606)	MIC (P. aeruginosa ATCC 35151)	MIC (E. coli 901C; E. coli 901C (hyper-permeable))	MIC [2]	MIC [3]	MIC (E. coli AG100A)	MIC [4]	MIC (E. coli ATCC 25922; Escherichia coli, ATCC25922; E. coli ATCC 25922; MHB; read-out: Minimum Inhibitory Concentration, E. coli 25922)	MIC (P. aeruginosa ATCC 27853)	MIC (E. coli AG100; [5])	MIC (E. coli D22; hyper-permeable E. coli D22)	MIC (E. coli 901C; hyper-permeable E. coli 901C)	MIC (E. coli ATCC 25922; [6])
CCN1CCN(C(=O)NC(C(=O)N[C@H]2Cc3cccc(C(=O)O)c3OB2O)c2ccc(C(=O)O)c([N+](=O)[O-])c2)C(=O)C1=O (stereo partly drawn) [Example 220, (3R)-3-(2-(4-carboxy-3-nitrophenyl)-2-(4-ethyl-2,3-dioxopiperazine-1-carboxamido)acetamido)-2-hydroxy-3,4-dihydro-2H-benzo[e][1,2]oxaborinine-8-carboxylic acid]	> 128 µg/mL	2 to 4 µg/mL (≈ 3.35 to 6.7 µM)	32 to 64 µg/mL (≈ 53.6 to 107 µM)	> 128 µg/mL	0.5 to 1 µg/mL (≈ 0.837 to 1.67 µM)	> 128 µg/mL	8 to 16 µg/mL (≈ 13.4 to 26.8 µM)	32 to 64 µg/mL (≈ 53.6 to 107 µM)	32 to 64 µg/mL (≈ 53.6 to 107 µM)	< 0.25 µg/mL	> 128 µg/mL	> 128 µg/mL	–	–	–	–
C[C@H]1CN(CCF)C(=O)C(=O)N1C(=O)N[C@@H](C(=O)N[C@H]1Cc2cccc(C(=O)O)c2OB1O)c1ccc(O)c(F)c1F [Example 241, (3R)-3-(2-(2,3-difluoro-4-hydroxyphenyl)-2-((S)-4-(2-fluoroethyl)-6-methyl-2,3-dioxopiperazine-1-carboxamido)acetamido)-2-hydroxy-3,4-dihydro-2H-benzo[e][1,2]oxaborinine-8-carboxylic acid]	–	2 to 4 µg/mL (≈ 3.38 to 6.75 µM)	–	> 128 µg/mL	2 to 4 µg/mL (≈ 3.38 to 6.75 µM)	–	2 to 4 µg/mL (≈ 3.38 to 6.75 µM)	32 to 64 µg/mL (≈ 54 to 108 µM)	32 to 64 µg/mL (≈ 54 to 108 µM)	< 0.25 µg/mL	–	> 128 µg/mL	32 to 64 µg/mL (≈ 54 to 108 µM)	32 to 64 µg/mL (≈ 54 to 108 µM)	> 128 µg/mL	8 to 16 µg/mL (≈ 13.5 to 27 µM)
C[C@H]1CN(CCN)C(=O)C(=O)N1C(=O)N[C@@H](C(=O)N[C@H]1Cc2cccc(C(=O)O)c2OB1O)c1ccc(O)c(F)c1F [Example 242, (3R)-3-(2-((S)-4-(2-aminoethyl)-6-methyl-2,3-dioxopiperazine-1-carboxamido)-2-(2,3-difluoro-4-hydroxyphenyl)acetamido)-2-hydroxy-3,4-dihydro-2H-benzo[e][1,2]oxaborinine-8-carboxylic acid]	–	2 to 4 µg/mL (≈ 3.39 to 6.79 µM)	–	> 128 µg/mL	0.5 to 1 µg/mL (≈ 0.848 to 1.7 µM)	–	8 to 16 µg/mL (≈ 13.6 to 27.2 µM)	32 to 64 µg/mL (≈ 54.3 to 109 µM)	32 to 64 µg/mL (≈ 54.3 to 109 µM)	0.5 to 1 µg/mL (≈ 0.848 to 1.7 µM)	–	> 128 µg/mL	32 to 64 µg/mL (≈ 54.3 to 109 µM)	8 to 16 µg/mL (≈ 13.6 to 27.2 µM)	32 to 64 µg/mL (≈ 54.3 to 109 µM)	8 to 16 µg/mL (≈ 13.6 to 27.2 µM)
C[C@H]1CN(CCF)C(=O)C(=O)N1C(=O)NC(C(=O)N[C@H]1Cc2cccc(C(=O)O)c2OB1O)c1cc(F)c(O)c(F)c1F (stereo partly drawn) [Example 248]	–	0.5 to 1 µg/mL (≈ 0.819 to 1.64 µM)	–	> 128 µg/mL	2 to 4 µg/mL (≈ 3.28 to 6.55 µM)	–	8 to 16 µg/mL (≈ 13.1 to 26.2 µM)	32 to 64 µg/mL (≈ 52.4 to 105 µM)	32 to 64 µg/mL (≈ 52.4 to 105 µM)	< 0.25 µg/mL	–	> 128 µg/mL	32 to 64 µg/mL (≈ 52.4 to 105 µM)	8 to 16 µg/mL (≈ 13.1 to 26.2 µM)	> 128 µg/mL	8 to 16 µg/mL (≈ 13.1 to 26.2 µM)
O=C(O)c1cccc2c1OB(O)[C@@H](NC(=O)C(NC(=O)N1CCN(CCBr)C(=O)C1=O)c1ccc(O)c(F)c1F)C2 (stereo partly drawn) [Example 249, (3R)-3-(2-(4-(2-bromoethyl)-2,3-dioxopiperazine-1-carboxamido)-2-(2,3-difluoro-4-hydroxyphenyl)acetamido)-2-hydroxy-3,4-dihydro-2H-benzo[e][1,2]oxaborinine-8-carboxylic acid]	–	2 to 4 µg/mL (≈ 3.13 to 6.26 µM)	–	> 128 µg/mL	0.5 to 1 µg/mL (≈ 0.782 to 1.56 µM)	–	8 to 16 µg/mL (≈ 12.5 to 25 µM)	32 to 64 µg/mL (≈ 50.1 to 100 µM)	32 to 64 µg/mL (≈ 50.1 to 100 µM)	< 0.25 µg/mL	–	> 128 µg/mL	> 128 µg/mL	32 to 64 µg/mL (≈ 50.1 to 100 µM)	> 128 µg/mL	32 to 64 µg/mL (≈ 50.1 to 100 µM)
CCN1CCN(C(=O)NC(C(=O)N[C@H]2Cc3cccc(C(=O)O)c3OB2O)c2ccc(P(=O)(O)O)cc2)C(=O)C1=O (stereo partly drawn) [Example 250, (3R)-3-(2-(4-ethyl-2,3-dioxopiperazine-1-carboxamido)-2-(4-phosphonophenyl)acetamido)-2-hydroxy-3,4-dihydro-2H-benzo[e][1,2]oxaborinine-8-carboxylic acid]	–	2 to 4 µg/mL (≈ 3.4 to 6.8 µM)	–	32 to 64 µg/mL (≈ 54.4 to 109 µM)	2 to 4 µg/mL (≈ 3.4 to 6.8 µM)	–	8 to 16 µg/mL (≈ 13.6 to 27.2 µM)	> 128 µg/mL	> 128 µg/mL	< 0.25 µg/mL	–	> 128 µg/mL	> 128 µg/mL	32 to 64 µg/mL (≈ 54.4 to 109 µM)	> 128 µg/mL	32 to 64 µg/mL (≈ 54.4 to 109 µM)
Nc1nc(C(=O)NC(C(=O)N[C@H]2Cc3cccc(C(=O)O)c3OB2O)c2c(F)cc(O)cc2F)cs1 (stereo partly drawn) [Example 251, (3R)-3-(2-(2-aminothiazole-4-carboxamido)-2-(2,6-difluoro-4-hydroxyphenyl)acetamido)-2-hydroxy-3,4-dihydro-2H-benzo[e][1,2]oxaborinine-8-carboxylic acid]	–	8 to 16 µg/mL (≈ 15.4 to 30.9 µM)	–	> 128 µg/mL	2 to 4 µg/mL (≈ 3.86 to 7.72 µM)	–	32 to 64 µg/mL (≈ 61.7 to 123 µM)	> 128 µg/mL	> 128 µg/mL	2 to 4 µg/mL (≈ 3.86 to 7.72 µM)	–	> 128 µg/mL	> 128 µg/mL	> 128 µg/mL	> 128 µg/mL	> 128 µg/mL
